The NIST ThermoML archive (doi:10.1016/j.fluid.2014.04.018)
Values joined by “and” are separate entries in the source; they are usually repeats but may differ in a detail not shown here. Identical values can stand only once. ± gives the expanded uncertainty stated by the source.

Conditions: Liquid, Vibrating tube method

CCCOC(=O)CCCCC(=O)OCCC [dipropyl hexanedioate]
Conditions	mass density
293.15 K, 100 kPa	979.3 ± 3.9 kg/m3
293.15 K, 520 kPa	979.7 ± 3.9 kg/m3
293.15 K, 1040 kPa	980 ± 3.9 kg/m3
293.15 K, 2530 kPa	981 ± 3.9 kg/m3
293.15 K, 5020 kPa	982.5 ± 3.9 kg/m3
293.15 K, 7510 kPa	984.1 ± 3.9 kg/m3
293.15 K, 7530 kPa	984.2 ± 3.9 kg/m3
293.15 K, 10010 kPa	985.7 ± 4 kg/m3
293.15 K, 15050 kPa	988.9 ± 4 kg/m3
293.15 K, 20010 kPa	991.8 ± 4 kg/m3
293.15 K, 30030 kPa	997.7 ± 4 kg/m3
293.15 K, 39800 kPa	1003.1 ± 4 kg/m3
293.15 K, 50070 kPa	1008.4 ± 4 kg/m3
293.15 K, 65000 kPa	1015.7 ± 4.1 kg/m3
303.15 K, 100 kPa	970.4 ± 3.9 kg/m3 and 970.3 ± 3.9 kg/m3
303.15 K, 500 kPa	970.7 ± 3.9 kg/m3
303.15 K, 510 kPa	970.7 ± 3.9 kg/m3
303.15 K, 1010 kPa	971.1 ± 3.9 kg/m3
303.15 K, 2510 kPa	972.1 ± 3.9 kg/m3
303.15 K, 5000 kPa	973.8 ± 3.9 kg/m3
303.15 K, 5030 kPa	973.8 ± 3.9 kg/m3
303.15 K, 7510 kPa	975.5 ± 3.9 kg/m3
303.15 K, 10010 kPa	977.1 ± 3.9 kg/m3
303.15 K, 10020 kPa	977.1 ± 3.9 kg/m3
303.15 K, 15010 kPa	980.4 ± 3.9 kg/m3
303.15 K, 20000 kPa	983.5 ± 3.9 kg/m3
303.15 K, 30000 kPa	989.6 ± 4 kg/m3
303.15 K, 30010 kPa	989.6 ± 4 kg/m3
303.15 K, 39800 kPa	995.2 ± 4 kg/m3
303.15 K, 50010 kPa	1000.7 ± 4 kg/m3
303.15 K, 64990 kPa	1008.3 ± 4 kg/m3
303.15 K, 65010 kPa	1008.3 ± 4 kg/m3
313.15 K, 100 kPa	961.5 ± 3.9 kg/m3
313.15 K, 500 kPa	961.8 ± 3.9 kg/m3
313.15 K, 1010 kPa	962.2 ± 3.9 kg/m3
313.15 K, 2510 kPa	963.3 ± 3.9 kg/m3
313.15 K, 5040 kPa	965.1 ± 3.9 kg/m3
313.15 K, 7510 kPa	966.8 ± 3.9 kg/m3
313.15 K, 10010 kPa	968.5 ± 3.9 kg/m3
313.15 K, 15000 kPa	971.9 ± 3.9 kg/m3
313.15 K, 19980 kPa	975.2 ± 3.9 kg/m3
313.15 K, 30000 kPa	981.6 ± 3.9 kg/m3
313.15 K, 39800 kPa	987.4 ± 4 kg/m3
313.15 K, 39810 kPa	987.4 ± 4 kg/m3
313.15 K, 50060 kPa	993.2 ± 4 kg/m3
313.15 K, 65000 kPa	1001 ± 4 kg/m3
323.15 K, 100 kPa	952.4 ± 3.8 kg/m3
323.15 K, 500 kPa	952.8 ± 3.8 kg/m3
323.15 K, 1010 kPa	953.2 ± 3.8 kg/m3
323.15 K, 2530 kPa	954.3 ± 3.8 kg/m3
323.15 K, 5020 kPa	956.2 ± 3.8 kg/m3
323.15 K, 7510 kPa	958 ± 3.8 kg/m3
323.15 K, 7550 kPa	958.1 ± 3.8 kg/m3
323.15 K, 10000 kPa	959.9 ± 3.8 kg/m3
323.15 K, 15030 kPa	963.4 ± 3.9 kg/m3
323.15 K, 20010 kPa	966.9 ± 3.9 kg/m3
323.15 K, 30010 kPa	973.5 ± 3.9 kg/m3
323.15 K, 39820 kPa	979.5 ± 3.9 kg/m3
323.15 K, 50020 kPa	985.5 ± 4 kg/m3
323.15 K, 64990 kPa	993.7 ± 4 kg/m3
333.15 K, 100 kPa	943.5 ± 3.8 kg/m3
333.15 K, 500 kPa	943.9 ± 3.8 kg/m3
333.15 K, 1020 kPa	944.3 ± 3.8 kg/m3
333.15 K, 2520 kPa	945.5 ± 3.8 kg/m3
333.15 K, 5010 kPa	947.5 ± 3.8 kg/m3
333.15 K, 7510 kPa	949.4 ± 3.8 kg/m3
333.15 K, 10000 kPa	951.3 ± 3.8 kg/m3
333.15 K, 15000 kPa	955.1 ± 3.8 kg/m3
333.15 K, 20000 kPa	958.7 ± 3.8 kg/m3
333.15 K, 30020 kPa	965.6 ± 3.9 kg/m3
333.15 K, 39790 kPa	971.9 ± 3.9 kg/m3
333.15 K, 50050 kPa	978.1 ± 3.9 kg/m3
333.15 K, 65000 kPa	986.5 ± 4 kg/m3
343.15 K, 100 kPa	934.6 ± 3.7 kg/m3
343.15 K, 520 kPa	935 ± 3.8 kg/m3
343.15 K, 1040 kPa	935.5 ± 3.8 kg/m3
343.15 K, 2540 kPa	936.7 ± 3.8 kg/m3
343.15 K, 5020 kPa	938.8 ± 3.8 kg/m3
343.15 K, 7510 kPa	940.8 ± 3.8 kg/m3
343.15 K, 7520 kPa	940.8 ± 3.8 kg/m3
343.15 K, 10020 kPa	942.8 ± 3.8 kg/m3
343.15 K, 15000 kPa	946.7 ± 3.8 kg/m3
343.15 K, 20030 kPa	950.6 ± 3.8 kg/m3
343.15 K, 29580 kPa	957.4 ± 3.8 kg/m3
343.15 K, 39860 kPa	964.3 ± 3.9 kg/m3
343.15 K, 50020 kPa	970.7 ± 3.9 kg/m3
343.15 K, 65000 kPa	979.4 ± 3.9 kg/m3
353.15 K, 100 kPa	925.7 ± 3.7 kg/m3
353.15 K, 510 kPa	926.1 ± 3.7 kg/m3
353.15 K, 1020 kPa	926.5 ± 3.7 kg/m3
353.15 K, 2530 kPa	927.9 ± 3.7 kg/m3
353.15 K, 5020 kPa	930.1 ± 3.7 kg/m3
353.15 K, 7510 kPa	932.2 ± 3.7 kg/m3
353.15 K, 7530 kPa	932.2 ± 3.7 kg/m3
353.15 K, 10000 kPa	934.3 ± 3.7 kg/m3
353.15 K, 14550 kPa	938 ± 3.8 kg/m3
353.15 K, 20020 kPa	942.3 ± 3.8 kg/m3
353.15 K, 30010 kPa	949.8 ± 3.8 kg/m3
353.15 K, 39800 kPa	956.7 ± 3.8 kg/m3
353.15 K, 49990 kPa	963.4 ± 3.9 kg/m3
353.15 K, 64990 kPa	972.4 ± 3.9 kg/m3
363.15 K, 100 kPa	916.7 ± 3.7 kg/m3
363.15 K, 500 kPa	917.2 ± 3.7 kg/m3
363.15 K, 980 kPa	917.6 ± 3.7 kg/m3
363.15 K, 2520 kPa	919.1 ± 3.7 kg/m3
363.15 K, 5000 kPa	921.3 ± 3.7 kg/m3
363.15 K, 7480 kPa	923.6 ± 3.7 kg/m3
363.15 K, 10020 kPa	925.8 ± 3.7 kg/m3
363.15 K, 15020 kPa	930.1 ± 3.7 kg/m3
363.15 K, 20020 kPa	934.2 ± 3.7 kg/m3
363.15 K, 30020 kPa	942 ± 3.8 kg/m3
363.15 K, 39810 kPa	949.1 ± 3.8 kg/m3
363.15 K, 50050 kPa	956.1 ± 3.8 kg/m3
363.15 K, 64970 kPa	965.4 ± 3.9 kg/m3
